Reference: ChEMBL document CHEMBL3745680, “Meroterpenoids from a Tropical Dysidea sp. Sponge” (J Nat Prod, 2015)
≈ marks a conversion by molar mass, not a printed value.

Experiments:
[1] = Inhibition of Magnaporthe grisea Guy 11 isocitrate lyase using isocitrate as substrate by spectrophotometric based glyoxylate cycle assay; set-up: species or system Pyricularia grisea
Candida albicans = assay: Antifungal activity against Candida albicans ATCC 10231 after 48 to 72 hrs at 28 degC by serial 2-fold dilution method; format: functional
Trichophyton rubrum = assay: Antifungal activity against Trichophyton rubrum IFO 9185 after 48 to 72 hrs at 28 degC by serial 2-fold dilution method; format: functional
[2] = system: Trichophyton mentagrophytes; assay: Antifungal activity against Trichophyton mentagrophytes IFO 40996 after 48 to 72 hrs at 28 degC by serial 2-fold dilution method; format: functional
Aspergillus fumigatus = assay: Antifungal activity against Aspergillus fumigatus HIC 6094 after 48 to 72 hrs at 28 degC by serial 2-fold dilution method; format: functional
K562 = assay: Cytotoxicity against human K562 cells assessed as reduction in cell viability after 72 hrs by MTT assay; format: functional, cell-based; conditions: K562, 72 h
A549 = assay: Cytotoxicity against human A549 cells assessed as reduction in cell viability after 72 hrs by MTT assay; format: functional, cell-based; conditions: A549, 72 h
Staphylococcus aureus = assay: Antibacterial activity against Staphylococcus aureus ATCC 6538p after 24 hrs at 37 degC by broth dilution method; format: functional
Bacillus subtilis = assay: Antibacterial activity against Bacillus subtilis ATCC 6633 after 24 hrs at 37 degC by broth dilution method; format: functional; conditions: ATCC 6633, 24 h
Kocuria rhizophila = assay: Antibacterial activity against Kocuria rhizophila NBRC 12708 after 24 hrs at 37 degC by broth dilution method; format: functional; conditions: NBRC 12708, 24 h
Salmonella enterica = assay: Antibacterial activity against Salmonella enterica ATCC 14028 after 24 hrs at 37 degC by broth dilution method; format: functional; conditions: ATCC 14028, 24 h
Proteus hauseri = assay: Antibacterial activity against Proteus hauseri NBRC 3851 after 24 hrs at 37 degC by broth dilution method; format: functional; conditions: NBRC 3851, 24 h
Escherichia coli = assay: Antibacterial activity against Escherichia coli ATCC 35270 after 24 hrs at 37 degC by broth dilution method; format: functional; conditions: ATCC 35270, 24 h
Sortase A = target: T1, Sortase A (Staphylococcus aureus, UniProt Q9S446); assay: Inhibition of Staphylococcus aureus ATCC 6538p sortase A expressed in Escherichia coli using dabcyl-QALPETGEE-edans as substrate incubated for 1 hr by fluorescence spectrophotometry analysis
T1 sequence (Q9S446 whole entry): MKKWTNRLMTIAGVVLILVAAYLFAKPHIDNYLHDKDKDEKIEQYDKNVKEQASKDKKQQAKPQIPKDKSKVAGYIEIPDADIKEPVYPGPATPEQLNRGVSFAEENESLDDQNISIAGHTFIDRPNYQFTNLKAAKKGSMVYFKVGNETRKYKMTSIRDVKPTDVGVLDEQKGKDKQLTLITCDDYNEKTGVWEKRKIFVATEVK

[3] = target: Sodium/potassium-transporting ATPase; assay: Inhibition of Na+/K+ -ATPase in human intrauterine growth restriction placental membrane using 3-O-methylfluorescein phosphate by fluorometric method in presence of Kcl; format: tissue-based

SMILES | IC50 [1] [µg/mL] | MIC (Candida albicans) [µg/mL] | MIC (Trichophyton rubrum) [µg/mL] | MIC [2] [µg/mL] | MIC (Aspergillus fumigatus) [µg/mL] | IC50 (K562) [µM] | IC50 (A549) [µM] | MIC (Staphylococcus aureus) [µg/mL] | MIC (Bacillus subtilis) [µg/mL] | MIC (Kocuria rhizophila) [µg/mL] | MIC (Salmonella enterica) [µg/mL] | MIC (Proteus hauseri) [µg/mL] | MIC (Escherichia coli) [µg/mL] | IC50 (Sortase A) [µM] | IC50 [3] [µM]
O=C(O)CC[N+](=O)[O-] | 2.5 (≈ 21 µM) | – | – | – | – | – | – | – | – | – | – | – | – | – | –
C[C@@H]1[C@H](O)[C@@H](C)/C=C/C=C/C=C/C=C/C=C/C=C/C=C/[C@H](O[C@@H]2O[C@H](C)[C@@H](O)[C@H](N)[C@@H]2O)C[C@@H]2O[C@](O)(C[C@@H](O)C[C@@H](O)[C@H](O)CC[C@@H](O)C[C@@H](O)CC(=O)O[C@H]1C)C[C@H](O)[C@H]2C(=O)O [AMPHOTERICIN B] | – | 0.5 (≈ 0.541 µM) | 1 (≈ 1.08 µM) | 4 (≈ 4.33 µM) | 8 (≈ 8.66 µM) | – | – | – | – | – | – | – | – | – | –
C=C1CCC[C@@]23Oc4ccc(O)cc4C[C@]2(C)[C@@H](C)CC[C@@]13C | – | > 128 | > 128 | 8 (≈ 25.6 µM) | > 128 | 4.8 | 5.9 | 2 (≈ 6.4 µM) | 1 (≈ 3.2 µM) | 1 (≈ 3.2 µM) | 1 (≈ 3.2 µM) | 2 (≈ 6.4 µM) | > 128 | > 410 | 69.1
C=C1CCC[C@@]23C4=C(C[C@]2(C)[C@@H](C)CC[C@@]13C)C(=O)C=C(NCCS(=O)(=O)O)C4=O | – | > 128 | > 128 | > 128 | > 128 | 1.1 | 2.3 | > 128 | > 128 | 128 (≈ 295 µM) | > 128 | > 128 | > 128 | > 295 | 285
C=C1CCC[C@@]23C4=C(C[C@]2(C)[C@@H](C)CC[C@@]13C)C(=O)C=C(NC)C4=O | – | > 128 | > 128 | 128 (≈ 377 µM) | > 128 | 4 | 4.9 | > 128 | > 128 | 2 (≈ 5.89 µM) | > 128 | > 128 | > 128 | > 377 | > 377
C=C1CCC[C@H]2[C@](C)(CC3=CC(=O)C=C(NCCS(=O)(=O)O)C3=O)[C@@H](C)CC[C@@]12C | 43.5 (≈ 99.9 µM) | 16 (≈ 36.7 µM) | > 128 | 128 (≈ 294 µM) | > 128 | 6.9 | 4.2 | 64 (≈ 147 µM) | 32 (≈ 73.5 µM) | 8 (≈ 18.4 µM) | 32 (≈ 73.5 µM) | 32 (≈ 73.5 µM) | > 128 | 272 | 82.2
C=C1CCC[C@H]2[C@](C)(CC3=CC(=O)C=C(N(C)CCS(=O)(=O)O)C3=O)[C@@H](C)CC[C@@]12C | 93.3 (≈ 208 µM) | 128 (≈ 285 µM) | > 128 | 128 (≈ 285 µM) | > 128 | 5.7 | 6.1 | 128 (≈ 285 µM) | 64 (≈ 142 µM) | 64 (≈ 142 µM) | 128 (≈ 285 µM) | 128 (≈ 285 µM) | > 128 | > 285 | 94.5
C=C1CCC[C@H]2[C@](C)(Cc3cc(O)ccc3O)[C@@H](C)CC[C@@]12C [ARENAROL] | – | 4 (≈ 12.7 µM) | 4 (≈ 12.7 µM) | 8 (≈ 25.4 µM) | > 128 | 3.4 | 3.7 | 4 (≈ 12.7 µM) | 4 (≈ 12.7 µM) | 4 (≈ 12.7 µM) | 4 (≈ 12.7 µM) | 2 (≈ 6.36 µM) | > 128 | > 407 | 11.4
C=C1CCC[C@@]23C4=C(C[C@]2(C)[C@@H](C)CC[C@@]13C)C(=O)C(OC)=CC4=O | > 128 | > 128 | > 128 | > 128 | > 128 | 0.7 | 3.3 | > 128 | 16 (≈ 47 µM) | 8 (≈ 23.5 µM) | 16 (≈ 47 µM) | 16 (≈ 47 µM) | > 128 | – | > 376
CC1(C)S[C@@H]2[C@H](NC(=O)[C@H](N)c3ccccc3)C(=O)N2[C@H]1C(=O)O [AMPICILLIN] | – | – | – | – | – | – | – | 0.13 (≈ 0.372 µM) | < 0.06 | < 0.06 | 0.06 (≈ 0.172 µM) | < 0.06 | 4 (≈ 11.4 µM) | – | –
COc1ccc2cc3[n+](cc2c1OC)CCc1cc2c(cc1-3)OCO2 [BERBERINE CHLORIDE] | – | – | – | – | – | – | – | – | – | – | – | – | – | 109 | –
